Results as given in PubChem BioAssay AID504381 (The Scripps Research Institute Molecular Screening Center, 2011).
Active and inactive are the calls of the source. How the calls were made is not given here.

Experiments:
Assay in all cases: radioligand displacement at receptors and transporters – biochemical, PDSP panel, Set 2, late-stage follow-up (AID 504381)
[1] = target: D(1B) dopamine receptor (Homo sapiens) (UniProt P21918); settings: PDSP radioligand binding panel, Dopamine receptor D5, at 10 µM, stronger effect = higher value
Serotonin receptor 5ht6 = settings: PDSP radioligand binding panel, at 10 µM, stronger effect = higher value
Muscarinic receptor M4 = settings: PDSP radioligand binding panel, at 10 µM, stronger effect = higher value
Histamine receptor H2 = settings: PDSP radioligand binding panel, at 10 µM, stronger effect = higher value
Serotonin receptor 5ht1e = settings: PDSP radioligand binding panel, at 10 µM, stronger effect = higher value
Dopamine receptor D2 = settings: PDSP radioligand binding panel, at 10 µM, stronger effect = higher value
Serotonin receptor 5ht7 = settings: PDSP radioligand binding panel, at 10 µM, stronger effect = higher value
Serotonin receptor 5ht5a = settings: PDSP radioligand binding panel, at 10 µM, stronger effect = higher value
Histamine receptor H3 = settings: PDSP radioligand binding panel, at 10 µM, stronger effect = higher value
[2] = tested on: Biogenic amine transporter DAT; settings: PDSP radioligand binding panel, at 10 µM, stronger effect = higher value
[3] = target: Muscarinic acetylcholine receptor M2 (Homo sapiens) (UniProt P08172); settings: PDSP radioligand binding panel, at 10 µM, stronger effect = higher value
Muscarinic receptor M5 = settings: PDSP radioligand binding panel, at 10 µM, stronger effect = higher value
[4] = tested on: Adrenergic receptor Alpha1D; settings: PDSP radioligand binding panel, at 10 µM, stronger effect = higher value
Dopamine receptor D4 = settings: PDSP radioligand binding panel, at 10 µM, stronger effect = higher value
[5] = target: Muscarinic acetylcholine receptor M1 (Homo sapiens) (UniProt P11229); settings: PDSP radioligand binding panel, at 10 µM, stronger effect = higher value
[6] = tested on: Adrenergic receptor Beta3; settings: PDSP radioligand binding panel, at 10 µM, stronger effect = higher value
Serotonin receptor 5ht2a = settings: PDSP radioligand binding panel, at 10 µM, stronger effect = higher value
Serotonin receptor 5ht1a = settings: PDSP radioligand binding panel, at 10 µM, stronger effect = higher value
Serotonin receptor 5ht2c = settings: PDSP radioligand binding panel, at 10 µM, stronger effect = higher value
[7] = tested on: Adrenergic receptor Alpha1A; settings: PDSP radioligand binding panel, at 10 µM, stronger effect = higher value
[8] = tested on: Adrenergic receptor Alpha1B; settings: PDSP radioligand binding panel, at 10 µM, stronger effect = higher value
Serotonin receptor 5ht1d = settings: PDSP radioligand binding panel, at 10 µM, stronger effect = higher value
[9] = target: Beta-2 adrenergic receptor (Homo sapiens) (UniProt P07550); settings: PDSP radioligand binding panel, Adrenergic receptor Beta2, at 10 µM, stronger effect = higher value
Sigma receptor 1 = settings: PDSP radioligand binding panel, at 10 µM, stronger effect = higher value
[10] = tested on: Adrenergic receptor Beta1; settings: PDSP radioligand binding panel, at 10 µM, stronger effect = higher value
Histamine receptor H1 = settings: PDSP radioligand binding panel, at 10 µM, stronger effect = higher value
Opioid receptor MOR = settings: PDSP radioligand binding panel, at 10 µM, stronger effect = higher value
Serotonin receptor 5ht3 = settings: PDSP radioligand binding panel, at 10 µM, stronger effect = higher value
[11] = target: Delta-type opioid receptor (Homo sapiens) (UniProt P41143); settings: PDSP radioligand binding panel, Opioid receptor DOR, at 10 µM, stronger effect = higher value
[12] = target: Kappa-type opioid receptor (Homo sapiens) (UniProt P41145); settings: PDSP radioligand binding panel, Opioid receptor KOR, at 10 µM, stronger effect = higher value
Histamine receptor H4 = settings: PDSP radioligand binding panel, at 10 µM, stronger effect = higher value
[13] = tested on: Biogenic amine transporter NET; settings: PDSP radioligand binding panel, at 10 µM, stronger effect = higher value
Serotonin receptor 5ht1b = settings: PDSP radioligand binding panel, at 10 µM, stronger effect = higher value
[14] = target: Muscarinic acetylcholine receptor M3 (Homo sapiens) (UniProt P20309); settings: PDSP radioligand binding panel, at 10 µM, stronger effect = higher value
[15] = tested on: Biogenic amine transporter SERT; settings: PDSP radioligand binding panel, at 10 µM, stronger effect = higher value
[16] = target: 5-hydroxytryptamine receptor 2B (Homo sapiens) (UniProt P41595); settings: PDSP radioligand binding panel, Serotonin receptor 5ht2b, at 10 µM, stronger effect = higher value
[17] = target: D(1A) dopamine receptor (Homo sapiens) (UniProt P21728); settings: PDSP radioligand binding panel, Dopamine receptor D1, at 10 µM, stronger effect = higher value
[18] = target: D(3) dopamine receptor (Homo sapiens) (UniProt P35462); settings: PDSP radioligand binding panel, Dopamine receptor D3, at 10 µM, stronger effect = higher value
GABA receptor GABAa = settings: PDSP radioligand binding panel, at 10 µM, stronger effect = higher value

Measured: inhibition

Chain of Beta-2 adrenergic receptor (Homo sapiens) (P07550 whole entry, looked up): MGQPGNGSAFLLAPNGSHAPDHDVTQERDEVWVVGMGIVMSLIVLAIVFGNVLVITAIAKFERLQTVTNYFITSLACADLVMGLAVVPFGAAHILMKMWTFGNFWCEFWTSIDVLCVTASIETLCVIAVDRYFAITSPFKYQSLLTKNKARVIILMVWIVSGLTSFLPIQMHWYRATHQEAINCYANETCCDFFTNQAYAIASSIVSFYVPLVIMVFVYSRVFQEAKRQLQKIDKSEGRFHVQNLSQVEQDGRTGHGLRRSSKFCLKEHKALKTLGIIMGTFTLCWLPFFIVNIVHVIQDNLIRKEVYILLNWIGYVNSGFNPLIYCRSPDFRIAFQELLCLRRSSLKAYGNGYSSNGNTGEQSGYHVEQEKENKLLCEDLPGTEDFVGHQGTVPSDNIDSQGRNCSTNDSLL
Chain of Muscarinic acetylcholine receptor M3 (Homo sapiens) (P20309 whole entry, looked up): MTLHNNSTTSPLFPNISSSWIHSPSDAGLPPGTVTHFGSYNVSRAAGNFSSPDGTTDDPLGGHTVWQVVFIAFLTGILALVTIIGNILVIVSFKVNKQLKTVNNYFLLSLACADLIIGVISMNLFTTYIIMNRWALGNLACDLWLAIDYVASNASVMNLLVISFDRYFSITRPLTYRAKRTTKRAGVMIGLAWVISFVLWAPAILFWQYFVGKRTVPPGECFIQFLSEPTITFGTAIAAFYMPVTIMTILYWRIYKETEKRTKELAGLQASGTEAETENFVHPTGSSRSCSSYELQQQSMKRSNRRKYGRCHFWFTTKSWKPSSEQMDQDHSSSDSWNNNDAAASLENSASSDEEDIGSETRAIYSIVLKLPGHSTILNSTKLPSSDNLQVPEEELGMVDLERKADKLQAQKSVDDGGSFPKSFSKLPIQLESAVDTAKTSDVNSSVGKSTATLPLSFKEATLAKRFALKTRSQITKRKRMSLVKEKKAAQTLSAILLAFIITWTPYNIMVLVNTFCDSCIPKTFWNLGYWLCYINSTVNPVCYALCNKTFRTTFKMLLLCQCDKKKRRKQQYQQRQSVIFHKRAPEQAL
Chain of D(3) dopamine receptor (Homo sapiens) (P35462 whole entry, looked up): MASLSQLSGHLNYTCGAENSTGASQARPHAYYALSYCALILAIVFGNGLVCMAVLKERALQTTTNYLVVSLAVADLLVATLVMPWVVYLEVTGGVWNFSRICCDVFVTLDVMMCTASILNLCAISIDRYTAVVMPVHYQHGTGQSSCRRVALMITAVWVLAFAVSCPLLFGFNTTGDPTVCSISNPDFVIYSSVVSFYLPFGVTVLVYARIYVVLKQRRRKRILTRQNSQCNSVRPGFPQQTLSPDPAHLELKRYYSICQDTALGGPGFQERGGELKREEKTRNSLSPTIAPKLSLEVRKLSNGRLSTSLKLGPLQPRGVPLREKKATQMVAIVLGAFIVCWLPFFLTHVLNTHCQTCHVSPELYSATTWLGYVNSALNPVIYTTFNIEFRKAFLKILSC
Chain of Muscarinic acetylcholine receptor M1 (Homo sapiens) (P11229 whole entry, looked up): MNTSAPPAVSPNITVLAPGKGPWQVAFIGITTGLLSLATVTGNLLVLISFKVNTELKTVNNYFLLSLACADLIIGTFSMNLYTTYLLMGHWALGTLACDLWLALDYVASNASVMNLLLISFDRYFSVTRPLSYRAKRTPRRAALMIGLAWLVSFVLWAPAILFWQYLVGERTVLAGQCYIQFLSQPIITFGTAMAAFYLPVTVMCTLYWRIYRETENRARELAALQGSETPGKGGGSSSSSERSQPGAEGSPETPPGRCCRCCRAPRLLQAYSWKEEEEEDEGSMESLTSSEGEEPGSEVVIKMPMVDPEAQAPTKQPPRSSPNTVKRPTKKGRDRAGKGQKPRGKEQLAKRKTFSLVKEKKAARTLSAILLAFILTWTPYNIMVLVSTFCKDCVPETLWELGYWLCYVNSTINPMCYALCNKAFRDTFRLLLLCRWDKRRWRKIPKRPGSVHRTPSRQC
Chain of Muscarinic acetylcholine receptor M2 (Homo sapiens) (P08172 whole entry, looked up): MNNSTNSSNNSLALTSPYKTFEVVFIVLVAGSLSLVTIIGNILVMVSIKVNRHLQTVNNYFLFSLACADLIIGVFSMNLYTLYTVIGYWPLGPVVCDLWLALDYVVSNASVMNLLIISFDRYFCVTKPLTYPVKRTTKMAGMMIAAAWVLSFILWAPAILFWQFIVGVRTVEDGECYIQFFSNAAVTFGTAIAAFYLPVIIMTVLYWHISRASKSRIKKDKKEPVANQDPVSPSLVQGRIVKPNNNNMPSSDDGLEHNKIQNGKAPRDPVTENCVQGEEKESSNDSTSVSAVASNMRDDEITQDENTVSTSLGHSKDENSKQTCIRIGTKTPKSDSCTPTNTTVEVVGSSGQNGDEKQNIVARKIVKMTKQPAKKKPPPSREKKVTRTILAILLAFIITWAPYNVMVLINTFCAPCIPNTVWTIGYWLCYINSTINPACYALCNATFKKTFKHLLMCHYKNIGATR
Chain of Kappa-type opioid receptor (Homo sapiens) (P41145 whole entry, looked up): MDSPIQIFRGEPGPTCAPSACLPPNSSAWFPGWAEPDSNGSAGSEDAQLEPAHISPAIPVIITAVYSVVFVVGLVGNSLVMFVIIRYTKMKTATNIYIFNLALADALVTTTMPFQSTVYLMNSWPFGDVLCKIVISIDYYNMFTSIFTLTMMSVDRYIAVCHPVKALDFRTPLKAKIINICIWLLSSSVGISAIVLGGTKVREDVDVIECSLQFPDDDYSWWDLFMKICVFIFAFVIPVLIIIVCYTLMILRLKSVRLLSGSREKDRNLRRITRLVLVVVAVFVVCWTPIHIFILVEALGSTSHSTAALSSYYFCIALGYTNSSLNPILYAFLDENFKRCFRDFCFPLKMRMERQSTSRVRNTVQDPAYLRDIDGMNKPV
Chain of 5-hydroxytryptamine receptor 2B (Homo sapiens) (P41595 whole entry, looked up): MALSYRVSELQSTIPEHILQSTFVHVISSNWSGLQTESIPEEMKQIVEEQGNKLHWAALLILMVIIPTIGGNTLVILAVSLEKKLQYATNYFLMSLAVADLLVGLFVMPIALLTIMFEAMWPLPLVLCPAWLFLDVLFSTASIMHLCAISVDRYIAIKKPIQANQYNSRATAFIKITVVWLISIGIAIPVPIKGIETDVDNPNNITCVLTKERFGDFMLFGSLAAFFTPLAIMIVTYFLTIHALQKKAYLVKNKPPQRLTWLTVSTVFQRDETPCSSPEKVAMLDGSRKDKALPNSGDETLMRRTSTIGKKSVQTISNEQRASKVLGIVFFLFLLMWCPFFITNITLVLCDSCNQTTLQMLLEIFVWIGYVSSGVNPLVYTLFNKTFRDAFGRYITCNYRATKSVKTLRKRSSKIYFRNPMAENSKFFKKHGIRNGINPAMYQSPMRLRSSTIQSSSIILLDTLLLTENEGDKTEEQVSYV
Chain of Delta-type opioid receptor (Homo sapiens) (P41143 whole entry, looked up): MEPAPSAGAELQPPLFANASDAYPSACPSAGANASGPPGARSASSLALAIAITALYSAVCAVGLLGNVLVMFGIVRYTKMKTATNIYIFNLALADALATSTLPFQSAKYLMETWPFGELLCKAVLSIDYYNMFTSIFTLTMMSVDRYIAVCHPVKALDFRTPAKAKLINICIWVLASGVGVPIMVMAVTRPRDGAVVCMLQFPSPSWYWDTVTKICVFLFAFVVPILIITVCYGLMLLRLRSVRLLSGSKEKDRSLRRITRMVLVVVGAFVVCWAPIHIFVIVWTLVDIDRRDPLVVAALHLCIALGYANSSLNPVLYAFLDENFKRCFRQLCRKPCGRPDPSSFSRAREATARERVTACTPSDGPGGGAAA
Chain of D(1A) dopamine receptor (Homo sapiens) (P21728 whole entry, looked up): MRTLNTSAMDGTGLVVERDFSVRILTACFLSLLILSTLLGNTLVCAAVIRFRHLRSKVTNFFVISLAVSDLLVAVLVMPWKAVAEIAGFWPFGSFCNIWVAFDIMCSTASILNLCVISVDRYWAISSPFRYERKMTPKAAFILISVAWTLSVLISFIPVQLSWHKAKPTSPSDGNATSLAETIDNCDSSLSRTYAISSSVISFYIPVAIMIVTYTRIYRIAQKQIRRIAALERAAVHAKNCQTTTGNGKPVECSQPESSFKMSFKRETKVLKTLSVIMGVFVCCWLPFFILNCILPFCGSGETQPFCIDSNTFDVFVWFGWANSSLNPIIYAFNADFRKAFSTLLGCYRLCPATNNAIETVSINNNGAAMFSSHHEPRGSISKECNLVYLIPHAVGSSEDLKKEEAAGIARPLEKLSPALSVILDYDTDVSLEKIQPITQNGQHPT
Chain of D(1B) dopamine receptor (Homo sapiens) (P21918 whole entry, looked up): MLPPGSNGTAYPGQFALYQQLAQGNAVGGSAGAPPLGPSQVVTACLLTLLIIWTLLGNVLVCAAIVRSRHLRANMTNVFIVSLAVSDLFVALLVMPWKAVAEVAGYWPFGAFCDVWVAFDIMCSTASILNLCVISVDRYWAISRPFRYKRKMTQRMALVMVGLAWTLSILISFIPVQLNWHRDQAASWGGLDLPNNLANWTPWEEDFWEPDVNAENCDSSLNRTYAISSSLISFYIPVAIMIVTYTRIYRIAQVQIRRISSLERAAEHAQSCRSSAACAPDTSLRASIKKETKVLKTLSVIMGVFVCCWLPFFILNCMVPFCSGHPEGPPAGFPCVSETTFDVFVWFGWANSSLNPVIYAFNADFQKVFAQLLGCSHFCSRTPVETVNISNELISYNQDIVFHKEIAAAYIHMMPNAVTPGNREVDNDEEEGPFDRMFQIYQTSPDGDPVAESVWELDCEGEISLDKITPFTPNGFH

CC(=O)c1ccc2c(c1)Nc1ccccc1S2
active: [12] 102% | [16] 78.9% | [18] 97.3%
inactive: [1] 38.7% | Serotonin receptor 5ht6 3.5% | Muscarinic receptor M4 -9.4% | Histamine receptor H2 9.9% | Serotonin receptor 5ht1e -36.5% | Dopamine receptor D2 -1.5% | Serotonin receptor 5ht7 -19% | Serotonin receptor 5ht5a -7.7% | Histamine receptor H3 4% | [2] 29.1% | [3] -6.7% | Muscarinic receptor M5 10.5% | [4] 17.9% | Dopamine receptor D4 0.9% | [5] -14.2% | [6] -13.9% | Serotonin receptor 5ht2a 0.5% | Serotonin receptor 5ht1a 21.4% | Serotonin receptor 5ht2c 31.5% | [7] -2.9% | [8] 9% | Serotonin receptor 5ht1d 15.3% | [9] 11.4% | Sigma receptor 1 6.3% | [10] 2.6% | Histamine receptor H1 35.7% | Opioid receptor MOR 16.6% | Serotonin receptor 5ht3 7.8% | [11] 0.8% | Histamine receptor H4 -16% | [13] 74.1% | Serotonin receptor 5ht1b 5.8% | [14] -0.4% | [15] 8.8% | [17] 13.9% | GABA receptor GABAa 28.7%
